According to paper PMC4912218, “Targeted metabolomics of Gammarus pulex following controlled exposures to selected pharmaceuticals in water” (The Science of the Total Environment, 2016):

Test system: Gammarus pulex
Test: Targeted metabolite profiling (LC-HRMS) of G. pulex after exposure at NOAEL and LOAEL
Format: in vivo
Procedure: Approximately 100 specimens were introduced in a tank containing 1 L of AFW (control), 1 L of AFW spiked with C1 and 1 L of AFW with C2. At three different times (2, 6 and 24 h), 4 replicates of live G. pulex (a pool of 6–7 animals for each replicate) were collected, frozen on dry ice and then stored at − 80 °C before metabolite profiling was performed.
Quantification of pharmaceutical concentrations in G. pulex at the 24 h exposure interval was performed. Separate exposures were set up in triplicate in beakers containing 200 mL of exposure solution (AFW spiked with the respective C1 pharmaceutical dose) and 20 organisms. At 24 h, animals were immediately rinsed with ultra-pure water and then frozen at − 20 °C for 24 h. […] Prior to extraction, frozen G. pulex samples were lyophilised at − 50 °C under vacuum for 48 h and milled in an agate mortar to a fine powder. For each analysis, 20 mg of a lyophilised composite sample were transferred to 2 mL polypropylene tubes (Eppendorf®, Hamburg, Germany), for solid-liquid extraction (SLE). […] Then, samples were shaken for 25 min on a vibration plate (IKA® KS 260 basic) and centrifuged at 14,000 rpm for 25 min at 0 °C. Finally, the supernatant was transferred to a chromatographic vial by using a […] syringe filter (Whatman, GE Healthcare Life Sciences, Buckinghamshire, UK). All samples were stored at − 80 °C until LC-HRMS analysis.
Briefly, 50 mg of lyophilised G. pulex were extracted in 5 mL of acetonitrile and pre-concentrated on Oasis HLB SPE cartridges (6 mL, 200 mg sorbent). The extract was eluted, dried-down and reconstituted in starting LC mobile phase. […] Organic acids, nucleosides, nucleotides, sugars and AAs were measured using LC–HRMS. An Exactive™ mass spectrometer equipped with heated electrospray ionization (H-ESI) source was used (Thermo Fisher Scientific, Bremen, Germany). The system was equipped with a HTC PAL autosampler and a Surveyor MS Plus pump. A TSK Gel-Amide 80 column (2 × 250 mm, 5 μm) for analyte separation was purchased from Sigma Aldrich. Mobile phases were binary mixtures of acetonitrile (A) and 5 mM ammonium acetate (pH 5) in HPLC-grade water (B). […] The flow rate was set at 150 μL min^− 1 and the injection volume was 5 μL. […] Full scan acquisition over a mass range of 80–800 Da was performed at 70,000 full width at half maximum (FWHM) and spray voltage at 3.00 kV, capillary voltage at 30 V, skimmer voltage at 28 V and tube lens voltage at 130 V were used. A sheath gas flow rate of 45 arbitrary units (au), an auxiliary gas flow rate of 10 au and a capillary temperature at 300 °C were selected.
Here, pharmaceutical residue quantification in exposed G. pulex was performed by a 3-point matrix-matched calibration curve. […] The algal amino acid mixture-^13C,^15N (see Table 1) was used as internal standard (IS) for extraction and analytical control. L-ornithine hydrochloride, inosine, thymidine, taurine, 1.7-dimethylxanthine and (−)-riboflavin were quantified using either ^13C,^15N-proline or ^13C,^15N-tyrosine as the internal standard. The remaining 15 compounds were quantified using external calibration and the target compound itself was used as external standard. […] The method detection limit (MDL) was calculated following the same procedure, using spiked lyophilised G. pulex samples at a concentration of 1 μg g^− 1. Intra-assay variation was assessed using five consecutive injections of 5 ng μL^− 1 standard solution, and inter-assay variation was determined by measuring the same standard solution on four different days. […] Recovery studies were performed in triplicate, using lyophilised G. pulex samples spiked at 1 μg g^− 1 with the metabolites mixture and the algal amino acid mixture-^13C, ^15N.

Oc1cc(Cl)ccc1Oc1ccc(Cl)cc1Cl [Triclosan]
(-)-Riboflavin concentration in G. pulex (2h, C1= 0.1 mg/L): 2.6 ± 0.7 µg/g
ADP concentration in G. pulex (2h, C1= 0.1 mg/L): 28.6 ± 2 µg/g
Cytidine concentration in G. pulex (2h, C1= 0.1 mg/L): 34 ± 22 µg/g
Hypoxanthine concentration in G. pulex (2h, C1= 0.1 mg/L): 123 ± 4 µg/g
Inosine concentration in G. pulex (2h, C1= 0.1 mg/L): 14808 ± 1341 µg/g
L-2-amino-n-butyric concentration in G. pulex (2h, C1= 0.1 mg/L): 15.1 ± 3 µg/g
L-(-)-Proline concentration in G. pulex (2h, C1= 0.1 mg/L): 499 ± 11 µg/g
L-Alanine concentration in G. pulex (2h, C1= 0.1 mg/L): 999 ± 2 µg/g
L-Citrulline concentration in G. pulex (2h, C1= 0.1 mg/L): 9.7 ± 0.4 µg/g
L-Isoleucine concentration in G. pulex (2h, C1= 0.1 mg/L): 2067 ± 110 µg/g
L-Leucine concentration in G. pulex (2h, C1= 0.1 mg/L): 443 ± 1 µg/g
L-Methionine concentration in G. pulex (2h, C1= 0.1 mg/L): 5.4 ± 0.6 µg/g
L-Phenylalanine concentration in G. pulex (2h, C1= 0.1 mg/L): 340 ± 28 µg/g
L-Serine concentration in G. pulex (2h, C1= 0.1 mg/L): 158 ± 7 µg/g
L-Threonine concentration in G. pulex (2h, C1= 0.1 mg/L): 740 ± 6 µg/g
L-Tryptophan concentration in G. pulex (2h, C1= 0.1 mg/L): 74 ± 20 µg/g
L-Tyrosine concentration in G. pulex (2h, C1= 0.1 mg/L): 247 ± 8 µg/g
L-Valine concentration in G. pulex (2h, C1= 0.1 mg/L): 500 ± 1 µg/g
L-aspartic acid concentration in G. pulex (2h, C1= 0.1 mg/L): 62.6 ± 3 µg/g
NADH concentration in G. pulex (2h, C1= 0.1 mg/L): 7.11 ± 0.1 µg/g
Taurine concentration in G. pulex (2h, C1= 0.1 mg/L): 7300 ± 168 µg/g
Thymidine concentration in G. pulex (2h, C1= 0.1 mg/L): 2918 ± 603 µg/g
Trehalose concentration in G. pulex (2h, C1= 0.1 mg/L): 197 ± 1 µg/g
Uridine concentration in G. pulex (2h, C1= 0.1 mg/L): 699 ± 21 µg/g
(-)-Riboflavin concentration in G. pulex (2h, C2= 0.3 mg/L): 2.4 ± 0.5 µg/g
ADP concentration in G. pulex (2h, C2= 0.3 mg/L): 30.5 ± 0.2 µg/g
Cytidine concentration in G. pulex (2h, C2= 0.3 mg/L): 15 ± 6 µg/g
Hypoxanthine concentration in G. pulex (2h, C2= 0.3 mg/L): 74 ± 22 µg/g
Inosine concentration in G. pulex (2h, C2= 0.3 mg/L): 20640 ± 179 µg/g
L-2-amino-n-butyric concentration in G. pulex (2h, C2= 0.3 mg/L): 17.0 ± 2 µg/g
L-(-)-Proline concentration in G. pulex (2h, C2= 0.3 mg/L): 313 ± 1 µg/g
L-Alanine concentration in G. pulex (2h, C2= 0.3 mg/L): 827 ± 10 µg/g
L-Citrulline concentration in G. pulex (2h, C2= 0.3 mg/L): 14.6 ± 0.4 µg/g
L-Isoleucine concentration in G. pulex (2h, C2= 0.3 mg/L): 1140 ± 38 µg/g
L-Leucine concentration in G. pulex (2h, C2= 0.3 mg/L): 361 ± 17 µg/g
L-Methionine concentration in G. pulex (2h, C2= 0.3 mg/L): 3.8 ± 0.6 µg/g
L-Phenylalanine concentration in G. pulex (2h, C2= 0.3 mg/L): 200 ± 15 µg/g
L-Serine concentration in G. pulex (2h, C2= 0.3 mg/L): 158 ± 7 µg/g
L-Threonine concentration in G. pulex (2h, C2= 0.3 mg/L): 530 ± 7 µg/g
L-Tryptophan concentration in G. pulex (2h, C2= 0.3 mg/L): 142 ± 7 µg/g
L-Tyrosine concentration in G. pulex (2h, C2= 0.3 mg/L): 216 ± 5 µg/g
L-Valine concentration in G. pulex (2h, C2= 0.3 mg/L): 268 ± 1 µg/g
L-aspartic acid concentration in G. pulex (2h, C2= 0.3 mg/L): 60.5 ± 3 µg/g
NADH concentration in G. pulex (2h, C2= 0.3 mg/L): 9.3 ± 0.2 µg/g
Taurine concentration in G. pulex (2h, C2= 0.3 mg/L): 7645 ± 212 µg/g
Thymidine concentration in G. pulex (2h, C2= 0.3 mg/L): 639 ± 140 µg/g
Trehalose concentration in G. pulex (2h, C2= 0.3 mg/L): 272 ± 10 µg/g
Uridine concentration in G. pulex (2h, C2= 0.3 mg/L): 506 ± 66 µg/g
(-)-Riboflavin concentration in G. pulex (6h, C1= 0.1 mg/L): 3.4 ± 3 µg/g
ADP concentration in G. pulex (6h, C1= 0.1 mg/L): 18.6 ± 3 µg/g
Cytidine concentration in G. pulex (6h, C1= 0.1 mg/L): 66 ± 21 µg/g
Hypoxanthine concentration in G. pulex (6h, C1= 0.1 mg/L): 154 ± 27 µg/g
Inosine concentration in G. pulex (6h, C1= 0.1 mg/L): 18116 ± 26 µg/g
L-2-amino-n-butyric concentration in G. pulex (6h, C1= 0.1 mg/L): 21.1 ± 4 µg/g
L-(-)-Proline concentration in G. pulex (6h, C1= 0.1 mg/L): 462 ± 5 µg/g
L-Alanine concentration in G. pulex (6h, C1= 0.1 mg/L): 1119 ± 48 µg/g
L-Citrulline concentration in G. pulex (6h, C1= 0.1 mg/L): 9.0 ± 0.9 µg/g
L-Isoleucine concentration in G. pulex (6h, C1= 0.1 mg/L): 2685 ± 88 µg/g
L-Leucine concentration in G. pulex (6h, C1= 0.1 mg/L): 459 ± 4 µg/g
L-Methionine concentration in G. pulex (6h, C1= 0.1 mg/L): 5.0 ± 0.5 µg/g
L-Phenylalanine concentration in G. pulex (6h, C1= 0.1 mg/L): 417 ± 5 µg/g
L-Serine concentration in G. pulex (6h, C1= 0.1 mg/L): 179 ± 13 µg/g
L-Threonine concentration in G. pulex (6h, C1= 0.1 mg/L): 787 ± 22 µg/g
L-Tryptophan concentration in G. pulex (6h, C1= 0.1 mg/L): 97 ± 16 µg/g
L-Tyrosine concentration in G. pulex (6h, C1= 0.1 mg/L): 301 ± 1 µg/g
L-Valine concentration in G. pulex (6h, C1= 0.1 mg/L): 601 ± 9 µg/g
L-aspartic acid concentration in G. pulex (6h, C1= 0.1 mg/L): 43.2 ± 2 µg/g
NADH concentration in G. pulex (6h, C1= 0.1 mg/L): 7.7 ± 1 µg/g
Taurine concentration in G. pulex (6h, C1= 0.1 mg/L): 10516 ± 434 µg/g
Thymidine concentration in G. pulex (6h, C1= 0.1 mg/L): 3697 ± 180 µg/g
Trehalose concentration in G. pulex (6h, C1= 0.1 mg/L): 259 ± 8 µg/g
Uridine concentration in G. pulex (6h, C1= 0.1 mg/L): 723 ± 21 µg/g
